In patent publication US10100076B2, “Modified nucleosides for the treatment of viral infections and abnormal cellular proliferation” (priority 2000, dated 2018):

Assays:
HCV replicon = HCV replicon system in Huh7 cells, replicon RNA by Q-RT-PCR (HCV ΔCt, ΔΔCt); format: cell-based, hepatitis C virus; conditions: for Ave. ΔΔCt: HCV RNA ΔCt minus rRNA ΔCt; for Ave. HCV RNA ΔCt: HCV replicon in Huh7 cells; for average ΔΔCt: HCV RNA ΔCt minus rDNA ΔCt
[1] = tested on: rRNA (host RNA polymerase I product); experiment: rRNA ΔCt in Huh7 replicon cells (effect on host RNA polymerases); conditions: Table 24, average of n
Description: In a typical setting, a compound might reduce both the host RNA polymerase activity and the replicon-encoded polymerase activity. Therefore, quantification of rRNA (or any other host RNA polymerase I product) or beta-actin mRNA (or any other host RNA polymerase II) and comparison with RNA levels of the no-drug control is a relative measurement of the effect of the test compound on host RNA polymerases.
With the availability of both the HCV ΔCt data and the rRNA ΔCt, a specificity parameter can be introduced. This parameter is obtained by subtracting both ΔCt values from each other.

rDNA (host DNA) = experiment: rDNA ΔCt in Huh7 replicon cells (effect on cellular DNA polymerases); conditions: Table 25, average of N
Description: In another typical setting, a compound might reduce the host RNA polymerase activity, but not the host DNA polymerase activity. Therefore, quantification of rDNA or beta-actin DNA (or any other host DNA fragment) and comparison with DNA levels of the no-drug control is a relative measurement of the inhibitory effect of the test compound on cellular DNA polymerases.
With the availability of both the HCV ΔCt data and the rDNA ΔCt, a specificity parameter can be introduced. This parameter is obtained by subtracting both ΔCt values from each other.
Note: test concentration or dose not given here.

Compound	Ave. ΔΔCt (HCV replicon; Table 24)	Ave. HCV RNA ΔCt (HCV replicon; Table 24, average of n)	Ave. rRNA ΔCt [1]	average ΔΔCt (HCV replicon; Table 25)	Ave. HCV RNA ΔCt (HCV replicon; Table 25, average of N)	Ave. rDNA ΔCt (rDNA (host DNA))
NC(=O)c1ncn([C@@H]2O[C@H](CO)[C@@H](O)[C@H]2O)n1 [RIB, ribavirin, reference compound]	0.78	3.13	2.35	–	–	–
Nc1ccn([C@@H]2O[C@H](CO)[C@@H](O)[C@@H]2O)c(=O)n1 [β-D-AA]	1.42	3.83	2.41	1.88	3.83	2.53
Nc1ccn([C@@H]2O[C@H](CO)[C@H](Br)[C@H]2O)c(=O)n1 [β-D-AI]	0.48	2.93	2.43	4.55	3.76	−0.96
CS(=O)(=O)OC1C(CO)OC(n2ccc(N)nc2=O)C1O [β-D-AK]	1.25	3.73	2.48	0.79	3.51	2.69
Cc1ccc(S(=O)(=O)O[C@@H]2[C@@H](O)[C@H](n3ccc(N)nc3=O)O[C@@H]2CO)cc1 [β-D-AL]	0.36	3.08	2.72	0.61	3.18	2.56
Nc1ccn([C@@H]2O[C@H](CO)[C@@H](O)[C@@H]2Cl)c(=O)n1 [β-D-AN]	1.22	3.33	2.11	1.88	3.86	2.53
[2H]c1c(N)nc(=O)n([C@@H]2O[C@H](CO)[C@@H](O)[C@@H]2O)c1[2H] [β-D-AO]	1.97	4.10	2.13	2.26	4.10	1.84
Nc1nc(=O)n([C@@H]2O[C@H](CO)[C@@H](O)[C@@H]2O)cc1F [β-D-AP]	0.05	3.27	3.23	1.02	3.27	2.26
Nc1nc(=O)n([C@@H]2O[C@H](CO)[C@@H](O)[C@H]2O)cc1F [β-D-AQ]	1.22	4.45	3.22	2.73	4.75	1.78
Nc1nc(=O)n(C2OC(CO)C(Br)C2O)cc1F [β-D-AT]	0.64	3.71	3.07	1.43	3.81	2.43
Nc1nc(=O)n([C@@H]2O[C@H](CO)[C@H](Br)[C@H]2O)cc1I [β-D-BE]	1.64	4.44	2.80	2.98	4.99	2.06
Cc1ccc(S(=O)(=O)O[C@@H]2[C@@H](O)[C@H](n3cc(I)c(N)nc3=O)O[C@@H]2CO)cc1 [β-D-BF]	1.68	4.37	2.69	3.28	5.27	2.04
Nc1nc(=O)n([C@@H]2O[C@H](CO)[C@@H](O)[C@@H]2Br)cc1I [β-D-BH]	2.15	3.06	0.91	1.64	3.06	1.42
Nc1cn([C@@H]2O[C@H](CO)[C@@H](O)[C@H]2O)c(=O)nc1N [β-D-BJ]	1.44	5.06	3.62	3.53	4.34	0.81
N=c1nc(N)ccn1[C@@H]1O[C@H](CO)[C@@H](O)[C@@H]1O [β-D-BL]	0.35	2.28	1.93	0.65	2.28	1.62
CC(=O)Nc1ccn([C@@H]2O[C@H](CO)[C@@H](O)[C@@H]2O)c(=O)n1 [β-D-BO]	1.57	4.52	2.95	–	–	–
O=c1nc(NO)c(F)cn1[C@@H]1O[C@H](CO)[C@@H](O)[C@H]1O [β-D-BT]	1.24	4.83	3.59	3.39	4.44	1.17

Compound	Ave. ΔΔCt (HCV replicon; Table 24)	Ave. HCV RNA ΔCt (HCV replicon; Table 24, average of n)	Ave. rRNA ΔCt [1]	average ΔΔCt (HCV replicon; Table 25)	Ave. HCV RNA ΔCt (HCV replicon; Table 25, average of N)	Ave. rDNA ΔCt (rDNA (host DNA))
O=c1nc(NO)c(Br)cn1[C@@H]1O[C@H](CO)[C@@H](O)[C@H]1O [β-D-BU]	1.06	3.46	2.18	1.16	3.46	1.10
O=c1nc(NO)c(I)cn1[C@@H]1O[C@H](CO)[C@@H](O)[C@H]1O [β-D-BV]	1.22	1.88	0.65	1.65	1.88	0.31
O=c1[nH]c(=O)n([C@@H]2O[C@H](CO)[C@@H](O)[C@H]2O)cc1F [β-D-CC]	0.21	5.04	4.82	3.66	5.84	2.17
Nc1ncnc2c1ncn2[C@@H]1O[C@H](CO)[C@@H](F)[C@H]1O [β-D-DD]	1.61	6.60	4.99	3.30	6.60	3.30
OC[C@@H]1C[C@H](F)[C@H](n2cnc3c(Cl)ncnc32)O1 [β-D-DH]	1.21	4.13	2.91	3.25	4.14	0.89
O=C(Nc1nc(=O)n([C@H]2C=C[C@@H](CO)O2)cc1F)c1ccccc1[N+](=O)[O-] [β-D-EB]	1.90	3.33	1.42	2.37	3.33	0.96
OC[C@@H]1C=C(F)[C@H](n2cnc3c(Cl)ncnc32)O1 [β-D-FA]	1.44	3.80	3.58	0.78	3.80	1.92
Nc1ccn([C@@H]2C=C(CO)[C@@H](O)[C@H]2O)c(=O)n1 [β-D-HA]	1.68	5.52	3.85	3.16	5.12	2.04
Nc1nc(=O)n([C@@H]2C=C(CO)[C@@H](O)[C@H]2O)cc1F [β-D-HB]	1.30	2.94	1.65	0.40	1.90	1.19
Nc1nc(Cl)c2ncn([C@H]3CS[C@@H](CO)O3)c2n1 [β-D-KB]	1.10	3.61	2.52	3.81	3.81	0.00
O=c1nc2n(cc1F)[C@@H]1O[C@H](CO2)[C@@H](O)[C@H]1O [β-D-LA]	0.89	3.85	4.10	1.98	3.54	1.56
CC(=O)O[C@H]1[C@@H]2Oc3nc(=N)ccn3[C@@H]2O[C@@H]1CO [β-D-MD]	1.62	3.57	1.95	1.46	3.50	1.58
N=c1ccn2c(n1)O[C@H]1[C@H](O)[C@@H](CO)O[C@H]12 [β-D-ME]	1.64	2.89	1.25	1.36	2.89	1.53
N=c1nc2n(cc1F)[C@@H]1O[C@H](CO)[C@@H](O)[C@@H]1O2 [β-D-MF]	1.10	3.79	2.69	1.65	3.79	2.17
Nc1nc(SSc2nc(N)nc3c2ncn3[C@@H]2O[C@H](CO)[C@@H](O)[C@H]2O)c2ncn([C@@H]3O[C@H](CO)[C@@H](O)[C@H]3O)c2n1 [β-D-QA]	−0.89	2.91	3.81	2.55	4.85	2.30
CC1(CO)CO[C@@H](n2cnc3c(N)nc(F)nc32)C1 (stereo partly drawn) [β-D-VA]	1.39	5.56	4.17	–	–	–
